From PMC9747113 (Clinical and Translational Science, 2022)
Entries after “also recorded” stand apart in the source; their conditions may differ.

Assays:
[1] = Tolerability in fed and fasted states; format: in vivo; settings: fed vs fasted
[2] = system: BTK; settings: cited from earlier work
[3] = Population PK model of evobrutinib plasma concentration-time data
[4] = system: BTK; settings: 2 h after the first dose; cited from earlier work
[5] = between-participant variability, variance estimate
[6] = final population PK model, oral tablet

- BPV ALAG, Estimate (RSE %) [3, 5]: 0.156 (40.2)
- BPV CL/F, Estimate (RSE %) [3, 5]: 0.0958 (23.0)
- BPV D 1 Fasted, Estimate (RSE %) [3, 5]: 1.39 (47.2)
- BPV D 1 Fed, Estimate (RSE %) [3, 5]: 1.39 (47.2)
- BPV Q/F, Estimate (RSE %) [3, 5]: 1.17 (24.1)
- BPV V2/F, Estimate (RSE %) [3, 5]: 0.627 (31.9)
- BPV V3/F, Estimate (RSE %) [3, 5]: 1.86 (22.7)
- ALAG (absorption lag time) [3, 6]: 0.235 h
- CL/F (apparent clearance) [3, 6]: 273 L/h
- K a (first-order absorption rate constant) [3, 6]: 0.784 h⁻¹
- V3/F (apparent peripheral volume of distribution) [3, 6]: 446 L
- Vd/F ([3]; human, in vivo, po): 61.1 L
- Increase of bioavailability with food compared with fasted ([3]; low-fat meal vs fasted): 49%
Structure (SMILES): C=CC(=O)N1CCC(CNc2ncnc(N)c2-c2ccc(Oc3ccccc3)cc2)CC1 [evobrutinib, Evobrutinib]
- Tolerability in fed and fasted states [1]: equivalent
- BTKO, median at trough ([2]; after 14 days of 25 mg q.d. while fasted): 88%
- BTK occupancy at 96 h postdose ([2]; single doses ≥100 mg while fasted): > 50%
- maximum BTK occupancy ([2]; within 4 h of single doses ≥200 mg while fasted): > 90%
- Effect of ethnicity (Japanese vs non-Japanese) on PK parameters ([3]; covariate test): no difference; also recorded: not a significant covariate
- BTKO in peripheral blood [4]: high degree of BTKO
